Data published in patent publication US20110300229A1, “TREATING OR PREVENTING ROTAVIRUS INFECTION” (FONTERRA CO-OPERATIVE GROUP LIMITED, priority 2007, published 2011).
“And” between values parts separate entries of the source, which are not always exact repeats. Equal values may be shown once. Marks after values point to notes of the source that are not given here.

Tested on: human rotavirus strain Wa
Assay: Rotavirus infection assay in HT29 cells (crystal violet, % uninfected cells)
Format: cell-based
Settings: for activity in preventing virus infection of the cells: over a range of concentrations
Method: The HT29 cell line was used to propagate the human rotavirus strain Wa (neuraminidase resistant) in the presence of 1 μg/ml trypsin in Dulbecco's minimal essential medium (DMEM) supplemented with 10% foetal calf serum and penicillin/streptomycin (100 μg/ml/100 units/ml). Rotavirus was harvested by freeze thawing twice, spun at 750 g to remove cell debris and stored at −80° C. The rotavirus was assayed and found to contain […] plaque forming units (pfu)/ml.
The infection assay used was based on a number of published assays (Scott et al 1979; Smith et al 1979; Guarino et al 1996; Superb et al 2001). Confluent HT29 cells grown in DMEM (seeded at 3×10^5/ml in 96 well plates) were washed twice in sterile PBS. Doubling dilutions of each of the products to be screened (initial concentration 5 mg/ml) were made in the plate in 50 μl volumes of DMEM. Virus was added (10^4 pfu/well) to all wells except the cells only control and plates were then incubated for two hours in 5% CO2 at 37° C. Other controls included virus plus cells, lipids only, pure GM3 and pure GD3. Following the two-hour incubation trypsin was added to all the wells containing virus at a concentration of 2 μg/ml—this step cleaves VP4 to polypeptides VP8 and VP5 and is needed for the virion to penetrate into the cells' interior. Plates were incubated at 37° C. in 5% CO2 for seven days and were checked daily for cytopathic effect in the virus only control wells. Media was removed and plates washed in sterile PBS, air-dried and fixed with methanol for one minute. Plates were air dried and then stained with 100 μl/well of 1% crystal violet (351884W, BDH, England) for five minutes. Plates were washed four times with sterile water to remove excess stain. 100 μl of acetic acid per well was added to solubilise the stain and absorbance was read at a wavelength of 595 nm in a Biorad ELISA plate reader. Each sample was assayed on a minimum of three separate occasions and the percentage of uninfected cells calculated.
Statistical analysis was performed using an unpaired Student t test (InStat for MacIntosh) to compare the effect of the lipid products derived from bovine milk with the virus only control at the lowest dilution of the product.

| Substance | Percentage of HT29 cells uninfected by rotavirus (15.625 μg/ml) | Percentage of HT29 cells uninfected by rotavirus (31.25 μg/ml) | Percentage of HT29 cells uninfected by rotavirus (62.5 μg/ml) | Percentage of HT29 cells uninfected by rotavirus (250 μg/ml, mean +/− spread) | activity in preventing virus infection of the cells | Percentage of HT29 cells uninfected by rotavirus (7.8125 μg/ml) | Percentage of HT29 cells uninfected by rotavirus (125 μg/ml) |
| --- | --- | --- | --- | --- | --- | --- | --- |
| disialoganglioside GD3 | 31 +/− 1.5% | 40+/−3% and 40 +/− 2.5*** % | 59 +/− 1.4*** % | 57 +/− 1*** % | showed activity over a range of concentrations |  |  |
| Monosialoganglioside GM3 | 33 +/− 2.5% | 43+/−10% |  |  | showed activity over a range of concentrations | 34 +/− 1.5% | 49 +/− 8*** % |
